Experimental data published in patent US20220202882A1, “EFFECT OF COMBINATION OF BIFIDOBACTERIUM AND BERBERINE ON PRE-DIABETES AND TYPE 2 DIABETES” (The Fourth Military Medical University, priority 2018, published 2022).
Counter-ions that a name gives are not always drawn.

Tested on: pre-diabetic and type 2 diabetes mellitus patients
Assay: Clinical trial: ketone level in urine
Format: in vivo, human
Conditions: for Effect on urine ketone body level (in words) / Post-treatment ketone level in urine - pre-treatment ketone level in urine, mean value: 16 weeks of treatment; for Post-treatment ketone level in urine - pre-treatment ketone level in urine, mean value / Post-treatment ketone level in urine, mean value / Pre-treatment ketone level in urine, mean value: FAS; for Post-treatment ketone level in urine, mean value: after 16 weeks of treatment; for Pre-treatment ketone level in urine, mean value: baseline before treatment
Experimental: From June 2015 to October 2018, a double-blind, randomized, and parallel-controlled trial, studying the effects of the combined use of Bifidobacterium and berberine on pre-diabetic and type 2 diabetes mellitus patients, was conducted in 10 research centers in Xi'an, Yan'an and Shangluo of Shaanxi province, etc., including the First Affiliated Hospital of the Fourth Military Medical University. The trial included an enrollment stage of 2 weeks and a treatment stage of 16 weeks. After passing the first visit 1 (see V1 in Table 1), the subjects entered the enrollment stage, i.e., 2 weeks of lifestyle intervention, followed by a re-screening (see V2 in Table 1). The subjects were subjected to a 16-week course of treatment after passing the screening. See Table 1 for the detailed screening parameters. After the enrollment stage, the baseline data of the 300 successfully enrolled subjects were collected. Meanwhile, the subjects started to receive lifestyle guidance, and were randomly divided into four groups for 16 weeks of treatments. 1) Bifidobacterium group: the subjects were administered with Bifidobacterium capsules (Livzon Pharmaceutical Group Inc., batch no.: 20141013), 0.35 g/capsule, each capsule containing 50,000,000 viable bacteria (Bifidobacterium adolescentis DM8504), 2 capsules/time, 2 times/day, plus berberine placebo tablets (Northeast Pharma Group Shenyang First Pharma Co., Ltd., Lot no.: 20150101, containing 80.2% microcrystalline cellulose, 9.4% pregelatinized starch, 6.4% sodium carboxymethyl starch, 1% magnesium stearate, and 3% copovidone), 0.1 g/tablet, 5 tablets/time, 2 times/day. 2) Berberine group: the subjects were administered with berberine tablets (Northeast Pharma Group Shenyang First Pharma Co., Ltd., Lot no.: 130917, each tablet weighted 0.165 g and contained 0.1 g active berberine ingredient (berberine hydrochloride), with the same excipients as the placebo tablets), 5 tablets/time, 2 times/day, plus Bifidobacterium placebo capsules (Livzon Pharmaceutical Group Inc., Lot no.: 141001, specifically containing 0.348 g spray-dried lactose, and 0.002 g magnesium stearate), 0.35 g/capsule, 2 capsules/time, 2 times/day. 3) Combination Group: the subjects were administered with Bifidobacterium capsules, 0.35 g/capsule, each capsule containing 50,000,000 viable bacteria (B. adolescentis DM8504), 2 capsules/time, 2 times/day, plus berberine tablets, 0.1 g/tablet, each tablet containing 0.1 g active berberine ingredient (berberine hydrochloride), 5 tablets/time, 2 times/day. 4) Control group: the subjects were administered with Bifidobacteria placebo capsules, 0.35 g/capsule, 2 capsules/time, 2 times/day, plus berberine placebo tablets, 0.1 g/tablet, 5 tablets/time, 2 times/day. Bifidobacterium capsules were taken after meals and berberine tablets were taken before meals. Tests of all samples in the study were carried out in a designated laboratory with standardized criteria. Blood analysis covered hundreds of indicators including insulin, amino acids, cytokines etc. After the sample testing was finished, 1) Chi-Squared test and t-test were used to evaluate the intergroup balance of the baseline data including the demographic characteristics and pre-treatment indicators, wherein the baseline data referred to those collected at the second visit, before the formal administration, the data collected at the first visit on the enrollment stage were used instead if the data at the second visit was lacking; 2) two-way disordered CM-CH11, Kruska-Wilcox test, etc. were used for analysis and intergroup comparison of pre- and post-treatment indicators such as fasting plasma glucose (FPG), HbA1c, plasma glucose at 2 hours post OGTT (2-h PPG), blood pressure, blood lipids, body weight and BMI; 3) adverse events and hypoglycemia events were described in terms of the type, frequency and relevance with the drugs, for safety evaluation. Software SAS 9.1.3 was used for statistical analysis with all analysis processes being programmed. […]

Compound	Effect on urine ketone body level (in words)	Post-treatment ketone level in urine - pre-treatment ketone level in urine, mean value	Post-treatment ketone level in urine, mean value	Pre-treatment ketone level in urine, mean value
COc1ccc2cc3[n+](cc2c1OC)CCc1cc2c(cc1-3)OCO2 [Berberine, berberine hydrochloride]	not observed	0.0526	0.0513	0.0000
Bifidobacterium	not observed	−0.0909	0.0341	0.1100
